Results: ChEMBL document CHEMBL1124261 (J Med Chem, 1988)

What was measured:
L1210 [1] = assay: Mean change in weight of mice infected with L1210 leukemia after 7 days after an intraperitoneal dose of 20 mg/kg; format: functional, Mus musculus
L1210 [2] = assay: Mean change in weight of mice infected with L1210 leukemia after 7 days after an intraperitoneal dose of 80 mg/kg; format: functional, Mus musculus
Dihydrofolate reductase = target: T1, Dihydrofolate reductase (Mus musculus, UniProt P00375); assay: biochemical
T1 sequence (P00375 whole entry): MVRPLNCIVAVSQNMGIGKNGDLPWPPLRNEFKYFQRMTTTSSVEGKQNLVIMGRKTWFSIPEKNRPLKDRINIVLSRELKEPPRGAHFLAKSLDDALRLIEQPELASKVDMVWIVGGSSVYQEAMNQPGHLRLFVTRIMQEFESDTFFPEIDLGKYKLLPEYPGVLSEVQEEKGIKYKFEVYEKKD
Description: Tested for inhibition against purified Dihydrofolate reductase from L1210 murine leukemia cells

L1210 [3] = assay: Range for the survival of mice infected with L1210 leukemia after an intraperitoneal dose of 60 mg/kg for 9 days; Range is 9-24; format: functional, Mus musculus
L1210 [4] = assay: Increase in life span of mice infected with L1210 leukemia after an intraperitoneal dose of 80 mg/kg for 9 days; format: functional; settings: Mus musculus, L1210, ip, 216 h
L1210 [5] = assay: Mean survival of mice infected with L1210 leukemia after an intraperitoneal dose of 80 mg/kg for 9 days; format: functional, Mus musculus
L1210 [6] = assay: Mean change in weight of mice infected with L1210 leukemia after 7 days after an intraperitoneal dose of 40 mg/kg; format: functional, Mus musculus
L1210 [7] = assay: Tested for cell-growth inhibition against mouse leukemic L1210 cells; format: functional, cell-based
L1210 [8] = assay: Mean survival of mice infected with L1210 leukemia after an intraperitoneal dose of 60 mg/kg for 9 days; format: functional, Mus musculus
L1210 [9] = assay: Range for the survival of mice infected with L1210 leukemia after an intraperitoneal dose of 40 mg/kg for 9 days; Range is 12-25; format: functional, Mus musculus
L1210 [10] = assay: Mean survival of mice infected with L1210 leukemia after an intraperitoneal dose of 20 mg/kg for 9 days; format: functional, Mus musculus
L1210 [11] = assay: Increase in life span of mice infected with L1210 leukemia after an intraperitoneal dose of 20 mg/kg for 9 days; format: functional; settings: Mus musculus, L1210, ip, 216 h
L1210 [12] = assay: Increase in life span of mice infected with L1210 leukemia after an intraperitoneal dose of 60 mg/kg for 9 days; format: functional; settings: Mus musculus, L1210, ip, 216 h
CCRF-CEM [13] = assay: Tested for cell-growth inhibition against human leukemic lymphoblast CEM/MTX cells; format: functional, cell-based
L1210 [14] = assay: Range for the survival of mice infected with L1210 leukemia after an intraperitoneal dose of 80 mg/kg for 9 days; Range is 9-11; format: functional, Mus musculus
L1210 [15] = assay: Increase in life span of mice infected with L1210 leukemia after an intraperitoneal dose of 40 mg/kg for 9 days; format: functional; settings: Mus musculus, L1210, ip, 216 h
L1210 ( R81) = assay: Tested for cell-growth inhibition against mouse leukemic L1210/R81 cells; format: functional, cell-based
Mus musculus [16] = species on record: Mus musculus; assay: (§1) Tested for inhibition against purified Folyl-polyglutamate synthase from mouse liver; settings: concentration not given here
CCRF-CEM [17] = assay: Tested for cell-growth inhibition against human leukemic lymphoblast CEM cells; format: functional, cell-based
L1210 [18] = assay: Mean survival of mice infected with L1210 leukemia after an intraperitoneal dose of 40 mg/kg for 9 days; format: functional, Mus musculus
L1210 [19] = assay: Range for the survival of mice infected with L1210 leukemia after an intraperitoneal dose of 20 mg/kg for 9 days; Range is 19-22; format: functional, Mus musculus
L1210 [20] = assay: Mean change in weight of mice infected with L1210 leukemia after 7 days after an intraperitoneal dose of 60 mg/kg; format: functional, Mus musculus
L1210 [21] = assay: Increase in life span of mice infected with L1210 leukemia after an intraperitoneal dose of 4 mg/kg for 9 days; format: functional; settings: Mus musculus, L1210, ip, 216 h
L1210 [22] = assay: Mean survival of mice infected with L1210 leukemia after an intraperitoneal dose of 4 mg/kg for 9 days; format: functional, Mus musculus
L1210 [23] = assay: Range for the survival of mice infected with L1210 leukemia after an intraperitoneal dose of 4 mg/kg for 9 days; format: functional, Mus musculus
L1210 [24] = assay: Mean change in weight of mice infected with L1210 leukemia after 7 days after an intraperitoneal dose of 4 mg/kg; format: functional, Mus musculus
L1210 [25] = assay: Mean change in weight of mice infected with L1210 leukemia after 7 days after an intraperitoneal dose of 6.25 mg/kg; format: functional, Mus musculus
L1210 [26] = assay: Increase in life span of mice infected with L1210 leukemia after an intraperitoneal dose of 25 mg/kg for 9 days; format: functional; settings: Mus musculus, L1210, ip, 216 h
L1210 [27] = assay: Mean survival of mice infected with L1210 leukemia after an intraperitoneal dose of 12.5 mg/kg for 9 days; format: functional, Mus musculus
L1210 [28] = assay: Range for the survival of mice infected with L1210 leukemia after an intraperitoneal dose of 12.5 mg/kg for 9 days; format: functional, Mus musculus
L1210 [29] = assay: Range for the survival of mice infected with L1210 leukemia after an intraperitoneal dose of 25 mg/kg for 9 days; format: functional, Mus musculus
L1210 [30] = assay: Mean survival of mice infected with L1210 leukemia after an intraperitoneal dose of 6.25 mg/kg for 9 days; format: functional, Mus musculus
L1210 [31] = assay: Mean change in weight of mice infected with L1210 leukemia after 7 days after an intraperitoneal dose of 25 mg/kg; format: functional, Mus musculus
L1210 [32] = assay: Range for the survival of mice infected with L1210 leukemia after an intraperitoneal dose of 6.25 mg/kg for 9 days; format: functional, Mus musculus
L1210 [33] = assay: Increase in life span of mice infected with L1210 leukemia after an intraperitoneal dose of 6.25 mg/kg for 9 days; format: functional; settings: Mus musculus, L1210, ip, 216 h
L1210 [34] = assay: Mean change in weight of mice infected with L1210 leukemia after 7 days after an intraperitoneal dose of 12.5 mg/kg; format: functional, Mus musculus
L1210 [35] = assay: Range for the survival of mice infected with L1210 leukemia after an intraperitoneal dose of 50 mg/kg for 9 days; format: functional, Mus musculus
L1210 [36] = assay: Increase in life span of mice infected with L1210 leukemia after an intraperitoneal dose of 12.5 mg/kg for 9 days; format: functional; settings: Mus musculus, L1210, ip, 216 h
L1210 [37] = assay: Mean survival of mice infected with L1210 leukemia after an intraperitoneal dose of 25 mg/kg for 9 days; format: functional, Mus musculus
L1210 [38] = assay: Increase in life span of mice infected with L1210 leukemia after an intraperitoneal dose of 50 mg/kg for 9 days; format: functional; settings: Mus musculus, L1210, ip, 216 h
[39] = Inhibitory constant against purified Folyl-polyglutamate synthase from mouse liver; format: functional
L1210 [40] = assay: Mean change in weight of mice infected with L1210 leukemia after 7 days after an intraperitoneal dose of 50 mg/kg; format: functional, Mus musculus
L1210 [41] = assay: Mean survival of mice infected with L1210 leukemia after an intraperitoneal dose of 50 mg/kg for 9 days; format: functional, Mus musculus
Mus musculus [42] = species on record: Mus musculus; assay: as §1; format: functional; settings: dose or concentration not given here
L1210 [43] = assay: Range for the survival of mice infected with L1210 leukemia after an intraperitoneal dose of 12.5 mg/kg for 9 days; Range is 10-15; format: functional, Mus musculus
L1210 [44] = assay: Range for the survival of mice infected with L1210 leukemia after an intraperitoneal dose of 50 mg/kg for 9 days; Range is 8-16
L1210 [45] = assay: Range for the survival of mice infected with L1210 leukemia after an intraperitoneal dose of 6.25 mg/kg for 9 days; Range is 10-13; format: functional, Mus musculus

| Structure (SMILES) | IC50 (Dihydrofolate reductase) [nM] | IC50 (L1210 [7]) [nM] | IC50 (L1210 ( R81)) [nM] | inhibition (Mus musculus [16]) [%] | Weight change (L1210 [25]) [%] | ILS at 25 mg/kg (L1210 [26]) [%] | Survival (L1210 [27]) [days] | Range (L1210 [29]) [days] | Survival (L1210 [30]) [days] | Weight change (L1210 [31]) [%] | ILS at 6.25 mg/kg (L1210 [33]) [%] | Weight change (L1210 [34]) [%] | ILS at 12.5 mg/kg (L1210 [36]) [%] | Survival (L1210 [37]) [days] | ILS at 50 mg/kg (L1210 [38]) [%] | Ki [39] [nM] | Weight change (L1210 [40]) [%] | Survival (L1210 [41]) [days] | also measured |
| --- | --- | --- | --- | --- | --- | --- | --- | --- | --- | --- | --- | --- | --- | --- | --- | --- | --- | --- | --- |
| CN(Cc1cnc2nc(N)nc(N)c2n1)c1ccc(C(=O)NC(CCCCCCCCCCC(=O)O)C(=O)O)cc1 (stereo not drawn) | 26 | 26 | 56000 | 59 | – | – | – | – | – | – | – | – | – | – | – | – | – | – | Weight change (L1210 [1]): 3%; Weight change (L1210 [2]): 4%; Range (L1210 [3]): 9 days; ILS at 80 mg/kg (L1210 [4]): 14%; Survival (L1210 [5]): 10 days; Weight change (L1210 [6]): 3%; Survival (L1210 [8]): 17.3 days; Range (L1210 [9]): 12 days; Survival (L1210 [10]): 20.4 days; ILS at 20 mg/kg (L1210 [11]): 137%; ILS at 60 mg/kg (L1210 [12]): 97%; IC50 (CCRF-CEM [13]): 10000 nM; Range (L1210 [14]): 9 days; ILS at 40 mg/kg (L1210 [15]): 116%; IC50 (CCRF-CEM [17]): 640 nM; Survival (L1210 [18]): 19 days; Range (L1210 [19]): 19 days; Weight change (L1210 [20]): 2% |
| CN(Cc1cnc2nc(N)nc(N)c2n1)c1ccc(C(=O)N[C@@H](CCC(=O)O)C(=O)O)cc1 [METHOTREXATE] | – | – | – | – | – | – | – | – | – | – | – | – | – | – | – | – | – | – | ILS at 4 mg/kg (L1210 [21]): 95%; Survival (L1210 [22]): 17.2 days; Range (L1210 [23]): 23 days; Weight change (L1210 [24]): 8% |
| Nc1nc(N)c2nc(CNc3ccc(C(=O)NC(CCCCCCCCCCC(=O)O)C(=O)O)cc3)cnc2n1 (stereo not drawn) | 67 | 1.1 | 215000 | 74 | 10 | 11 | 13.8 | 16 | 12.8 | -3 | 45 | 10 | 57 | 9.6 | 18 | 62000 | 4 | 10.4 | Range (L1210 [28]): 16 days; Range (L1210 [32]): 13 days; Range (L1210 [35]): 15 days |
| Nc1nc(N)c2nc(CNc3ccc(C(=O)NC(CCCCCCC(=O)O)C(=O)O)cc3)cnc2n1 (stereo not drawn) | 54 | 20 | > 218000 | – | 9 | 34 | 14.2 | 16 | 12 | 5 | 36 | 9 | 61 | 11.8 | 20 | 170000 | 7 | 10.6 | inhibition (Mus musculus [42]): 50%; Range (L1210 [43]): 10 days; Range (L1210 [44]): 8 days; Range (L1210 [45]): 10 days |
